Reference: PubChem BioAssay (NCI)
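Cells were grown in 96-well plates and exposed to each compound for 48 hours at five concentrations; endpoints were interpolated linearly between bracketing concentrations, or set to the highest concentration if not reached. GI50 = concentration required for 50% inhibition of growth. The concentration for full growth arrest is given as TGI.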

Legend:
Assay in all cases: DTP human tumour cell line panel, 48 h; in the data active = GI50 below about 0.43 µM; inactive = the rest
786-0 renal = tested on: 786-0 renal
A549 NSCLC = tested on: A549 NSCLC
ACHN renal = tested on: ACHN renal
BT-549 breast = tested on: BT-549 breast
CAKI-1 renal = tested on: CAKI-1 renal
CCRF-CEM leukemia = tested on: CCRF-CEM leukemia
COLO 205 colon = tested on: COLO 205 colon
DU-145 prostate = tested on: DU-145 prostate
EKVX NSCLC = tested on: EKVX NSCLC
HCC-2998 colon = tested on: HCC-2998 colon
HCT-116 colon = tested on: HCT-116 colon
HCT-15 colon = tested on: HCT-15 colon
HL-60(TB) leukemia = tested on: HL-60(TB) leukemia
HS 578T breast = tested on: HS 578T breast
HT29 colon = tested on: HT29 colon
IGROV1 ovarian = tested on: IGROV1 ovarian
K-562 leukemia = tested on: K-562 leukemia
KM12 colon = tested on: KM12 colon
LOX IMVI melanoma = tested on: LOX IMVI melanoma
M14 melanoma = tested on: M14 melanoma
MALME-3M melanoma = tested on: MALME-3M melanoma
MCF7 breast = tested on: MCF7 breast
MDA-MB-231 breast = tested on: MDA-MB-231 breast
MDA-MB-435 = tested on: MDA-MB-435
MOLT-4 leukemia = tested on: MOLT-4 leukemia
NCI-H226 lung = tested on: NCI-H226 lung
NCI-H460 lung = tested on: NCI-H460 lung
NCI-H522 lung = tested on: NCI-H522 lung
NCI/ADR-RES ovarian = tested on: NCI/ADR-RES ovarian
OVCAR-3 ovarian = tested on: OVCAR-3 ovarian
OVCAR-4 ovarian = tested on: OVCAR-4 ovarian
OVCAR-5 ovarian = tested on: OVCAR-5 ovarian
OVCAR-8 ovarian = tested on: OVCAR-8 ovarian
PC-3 prostate = tested on: PC-3 prostate
RPMI-8226 leukemia = tested on: RPMI-8226 leukemia
RXF 393 renal = tested on: RXF 393 renal
SF-268 CNS = tested on: SF-268 CNS
SF-295 CNS = tested on: SF-295 CNS
SF-539 CNS = tested on: SF-539 CNS
SK-MEL-2 melanoma = tested on: SK-MEL-2 melanoma
SK-MEL-28 melanoma = tested on: SK-MEL-28 melanoma
SK-MEL-5 melanoma = tested on: SK-MEL-5 melanoma
SK-OV-3 ovarian = tested on: SK-OV-3 ovarian
SN12C renal = tested on: SN12C renal
SNB-19 CNS = tested on: SNB-19 CNS
SNB-75 CNS = tested on: SNB-75 CNS
SR leukemia = tested on: SR leukemia
SW-620 colon = tested on: SW-620 colon
T-47D breast = tested on: T-47D breast
TK-10 renal = tested on: TK-10 renal
U251 CNS = tested on: U251 CNS
UACC-257 melanoma = tested on: UACC-257 melanoma
UACC-62 melanoma = tested on: UACC-62 melanoma
UO-31 renal = tested on: UO-31 renal
A498 renal = tested on: A498 renal
HOP-62 NSCLC = tested on: HOP-62 NSCLC
HOP-92 NSCLC = tested on: HOP-92 NSCLC
NCI-H23 lung = tested on: NCI-H23 lung

CC(C)=C[C@@H]1C[C@H](C)[C@H]2CC[C@H](C)C3=C2[C@](O)(OC3=O)[C@]1(C)O
> 100 µM: TGI (786-0 renal) | TGI (A549 NSCLC) | TGI (ACHN renal) | TGI (BT-549 breast) | TGI (CAKI-1 renal) | TGI (CCRF-CEM leukemia) | TGI (COLO 205 colon) | TGI (DU-145 prostate) | TGI (EKVX NSCLC) | TGI (HCC-2998 colon) | TGI (HCT-116 colon) | TGI (HCT-15 colon) | TGI (HL-60(TB) leukemia) | TGI (HS 578T breast) | TGI (HT29 colon) | TGI (IGROV1 ovarian) | TGI (K-562 leukemia) | TGI (KM12 colon) | TGI (LOX IMVI melanoma) | TGI (M14 melanoma) | TGI (MALME-3M melanoma) | TGI (MCF7 breast) | TGI (MDA-MB-231 breast) | TGI (MDA-MB-435) | TGI (MOLT-4 leukemia) | TGI (NCI-H226 lung) | TGI (NCI-H460 lung) | TGI (NCI-H522 lung) | TGI (NCI/ADR-RES ovarian) | TGI (OVCAR-3 ovarian) | TGI (OVCAR-4 ovarian) | TGI (OVCAR-5 ovarian) | TGI (OVCAR-8 ovarian) | TGI (PC-3 prostate) | TGI (RPMI-8226 leukemia) | TGI (RXF 393 renal) | TGI (SF-268 CNS) | TGI (SF-295 CNS) | TGI (SF-539 CNS) | TGI (SK-MEL-2 melanoma) | TGI (SK-MEL-28 melanoma) | TGI (SK-MEL-5 melanoma) | TGI (SK-OV-3 ovarian) | TGI (SN12C renal) | TGI (SNB-19 CNS) | TGI (SNB-75 CNS) | TGI (SR leukemia) | TGI (SW-620 colon) | TGI (T-47D breast) | TGI (TK-10 renal) | TGI (U251 CNS) | TGI (UACC-257 melanoma) | TGI (UACC-62 melanoma) | TGI (UO-31 renal)
inactive: GI50 (786-0 renal) > 100 µM | GI50 (A549 NSCLC) > 100 µM | GI50 (ACHN renal) > 100 µM | GI50 (BT-549 breast) > 100 µM | GI50 (CAKI-1 renal) > 100 µM | GI50 (CCRF-CEM leukemia) > 100 µM | GI50 (COLO 205 colon) > 100 µM | GI50 (DU-145 prostate) > 100 µM | GI50 (EKVX NSCLC) > 100 µM | GI50 (HCC-2998 colon) > 100 µM | GI50 (HCT-116 colon) > 100 µM | GI50 (HCT-15 colon) > 100 µM | GI50 (HL-60(TB) leukemia) > 100 µM | GI50 (HS 578T breast) > 100 µM | GI50 (HT29 colon) > 100 µM | GI50 (IGROV1 ovarian) > 100 µM | GI50 (K-562 leukemia) > 100 µM | GI50 (KM12 colon) > 100 µM | GI50 (LOX IMVI melanoma) > 100 µM | GI50 (M14 melanoma) > 100 µM | GI50 (MALME-3M melanoma) > 100 µM | GI50 (MCF7 breast) 71.5 µM | GI50 (MDA-MB-231 breast) > 100 µM | GI50 (MDA-MB-435) > 100 µM | GI50 (MOLT-4 leukemia) > 100 µM | GI50 (NCI-H226 lung) > 100 µM | GI50 (NCI-H460 lung) > 100 µM | GI50 (NCI-H522 lung) > 100 µM | GI50 (NCI/ADR-RES ovarian) > 100 µM | GI50 (OVCAR-3 ovarian) > 100 µM | GI50 (OVCAR-4 ovarian) > 100 µM | GI50 (OVCAR-5 ovarian) > 100 µM | GI50 (OVCAR-8 ovarian) > 100 µM | GI50 (PC-3 prostate) > 100 µM | GI50 (RPMI-8226 leukemia) > 100 µM | GI50 (RXF 393 renal) > 100 µM | GI50 (SF-295 CNS) > 100 µM | GI50 (SF-539 CNS) > 100 µM | GI50 (SK-MEL-2 melanoma) > 100 µM | GI50 (SK-MEL-28 melanoma) > 100 µM | GI50 (SK-MEL-5 melanoma) > 100 µM | GI50 (SK-OV-3 ovarian) > 100 µM | GI50 (SN12C renal) > 100 µM | GI50 (SNB-19 CNS) > 100 µM | GI50 (SNB-75 CNS) > 100 µM | GI50 (SR leukemia) > 100 µM | GI50 (SW-620 colon) > 100 µM | GI50 (T-47D breast) > 100 µM | GI50 (TK-10 renal) > 100 µM | GI50 (U251 CNS) > 100 µM | GI50 (UACC-257 melanoma) > 100 µM | GI50 (UACC-62 melanoma) 99.8 µM | GI50 (UO-31 renal) > 100 µM

CC(C)(C)OC(=O)NCC(O)CNC(=O)OC(C)(C)C
> 100 µM: TGI (786-0 renal) | TGI (A498 renal) | TGI (A549 NSCLC) | TGI (ACHN renal) | TGI (BT-549 breast) | TGI (CAKI-1 renal) | TGI (CCRF-CEM leukemia) | TGI (COLO 205 colon) | TGI (DU-145 prostate) | TGI (EKVX NSCLC) | TGI (HCC-2998 colon) | TGI (HCT-116 colon) | TGI (HCT-15 colon) | TGI (HL-60(TB) leukemia) | TGI (HOP-62 NSCLC) | TGI (HOP-92 NSCLC) | TGI (HS 578T breast) | TGI (IGROV1 ovarian) | TGI (K-562 leukemia) | TGI (KM12 colon) | TGI (LOX IMVI melanoma) | TGI (M14 melanoma) | TGI (MALME-3M melanoma) | TGI (MCF7 breast) | TGI (MDA-MB-231 breast) | TGI (MDA-MB-435) | TGI (MOLT-4 leukemia) | TGI (NCI-H226 lung) | TGI (NCI-H23 lung) | TGI (NCI-H460 lung) | TGI (NCI-H522 lung) | TGI (NCI/ADR-RES ovarian) | TGI (OVCAR-3 ovarian) | TGI (OVCAR-4 ovarian) | TGI (OVCAR-5 ovarian) | TGI (OVCAR-8 ovarian) | TGI (PC-3 prostate) | TGI (RPMI-8226 leukemia) | TGI (RXF 393 renal) | TGI (SF-268 CNS) | TGI (SF-295 CNS) | TGI (SF-539 CNS) | TGI (SK-MEL-28 melanoma) | TGI (SK-MEL-5 melanoma) | TGI (SK-OV-3 ovarian) | TGI (SN12C renal) | TGI (SNB-19 CNS) | TGI (SR leukemia) | TGI (SW-620 colon) | TGI (T-47D breast) | TGI (TK-10 renal) | TGI (U251 CNS) | TGI (UACC-257 melanoma) | TGI (UACC-62 melanoma) | TGI (UO-31 renal)
